Assay results from US11192849B2, “Compounds, compositions, and methods for modulating ferroptosis and treating excitotoxic disorders” (THE TRUSTEES OF COLUMBIA UNIVERSITY IN THE CITY OF NEW YORK, priority 2013, dated 2021).

What was measured:
[1] = test system: rat corticostriatal brain slices, medium spiny neurons; assay: Brain slice assay for HD (httN90Q73-transfected corticostriatal slices); type: cell-based; details: for number of healthy medium spiny neurons (MSNs): 10 nM, 100 nM and 1 μM, four days
Protocol: 250 μm corticostriatal brain slices were prepared from postnatal day 10 CD Sprague-Dawley rat pups (Charles River) as previously described (Hoffstrom et al., 2010). Brain slice explants were placed in interface culture in 6-well plates using culture medium containing 15% heat-inactivated horse serum, 10 mM KCl, 10 mM HEPES, 100 U/ml penicillin/streptomycin, 1 mM MEM sodium pyruvate, and 1 mM L-glutamine in Neurobasal A (Invitrogen) and maintained in humidified incubators under 5% CO2 at 32 deg. C. A custom-modified biolistic device (Helios Gene Gun; Bio-Rad) was used to transfect the brain slices with a human htt exon-1 expression construct containing a 73 CAG repeat (“HttN90Q73”) in the gWiz backbone (Genlantis) together with a YFP expression construct to visualize transfected neurons. Control brain slices were transfected with gWiz blank vector and YFP at the equivalent DNA amounts. After 4 days of incubation, MSNs were identified by their location within the striatum and by their characteristic dendritic morphology and scored as healthy if expressing bright and continuous YFP labeling throughout, normal-sized cell bodies, and >2 primary dendrites >2 cell bodies long, as previously described^21. Data were expressed as mean numbers of healthy MSNs per striatal region in each brain slice, with statistical significance tested by ANOVA followed by Dunnett's post hoc comparison test at the 0.05 confidence level. […]
Fer-1 attenuates lipid peroxidation and ferroptosis in cancer cells treated with small molecules that block cystine import or glutathione production, as well as cell death in rat organotypic hippocampal brain slices treated with toxic concentrations of glutamate, which also blocks cystine import (Dixon, et al., 2012). […] Four days later, the number of healthy medium spiny neurons (MSNs) was quantified, as previously described (Varma, et al., 2011, Hoffstrom, et al., 2010).

[2] = test system: primary pre-oligodendrocytes; assay: PVL model: cystine deprivation of developing oligodendrocytes; type: cell-based, rat; details: 100 nM, 24 hrs, Alamar Blue
Protocol: Primary pre-oligodendrocytes cultures were prepared from the forebrains of P2 Sprague Dawley (Charles River Laboratory) rat pups using a differential detachment method. Forebrains free of meninges were dissociated with Hanks' Balanced Salt Solution containing 0.01% trypsin and 10 μg/ml DNase, and triturated with DMEM containing 10% heat-inactivated fetal bovine serum and 100 U/ml penicillin and 100 μg/ml streptomycin. Dissociated cells were plated onto poly-D-lysine-coated 75 cm^2 flasks and fed cells every other day for 10-17 days. On day 10 or 17, following 1 hour pre-shake at 200 rpm 37° C. to remove microglia, the flasks were shaken overnight to separate pre-oligodendrocytes from astrocyte layer. The cell suspension was passed through a 20 μm filter and plated onto uncoated (bacteriological) petri dishes for 1 hour in incubator to remove residual microglia/astrocytes. Cell suspension was plated onto poly-D,L-ornithine-coated plates with DMEM, 1×ITS (Life Technologies), 2 mM L-glutamine, 1 mM sodium pyruvate, 0.5% FBS and 0.05% gentamicin (Sigma), 10 ng/ml PDGF and 10 ng/ml FGF (Peprotech), with full medium change the next day and half medium change every other day. […] Fluorescence was assayed in each well using FluoroCount Plate Reader (Packard), with Packard Plate Reader Version 3.0, and 530 nm excitation, and 590 nm emission filters. […]

| Structure (SMILES) | number of healthy medium spiny neurons (MSNs) [1] | number of healthy MSNs versus controls ([1]; 1 μM) | protection of oligodendrocytes from cystine deprivation [2] |
| --- | --- | --- | --- |
| CCOC(=O)c1ccc(NC2CCCCC2)c(N)c1 [SRS8-28 (Fer-1), ethyl 3-amino-4-(cyclohexylamino)benzoate] | significant increase in the number of healthy MSNs | statistically indistinguishable from both the YFP (no htt) control and the control inhibitor combination | fully protected OLs from cystine deprivation |
| CCOC(=O)c1ccc(NC2CCCCC2)c(NCc2ccccc2)c1 [SRS11-92, ethyl 3-(benzylamino)-4-(cyclohexylamino)benzoate] | significant increase in the number of healthy MSNs | – | fully protected OLs from cystine deprivation |
